The NIST ThermoML archive (doi:10.1021/je1011339)
± gives the expanded uncertainty stated by the source.

How the values were obtained:
[1] = 298.15 K; 101.33 kPa; Liquid; Vibrating tube method
[2] = refractive index (Na D-line) (dimensionless); conditions: 298.15 K; 101.33 kPa; Liquid; Standard Abbe refractometry

CCn1cc[n+](C)c1.O=S(=O)([N-]S(=O)(=O)C(F)(F)F)C(F)(F)F
mass density [1]: 1518.91 ± 0.36 kg/m3
refractive index [2]: 1.42298 ± 0.00068

CCCCCCCCCCn1cc[n+](C)c1.O=S(=O)([N-]S(=O)(=O)C(F)(F)F)C(F)(F)F
mass density [1]: 1278.4 ± 0.23 kg/m3
refractive index [2]: 1.43584 ± 0.00033

C=C(C)[C@H]1CC=C(C)CC1 [(R)-1-methyl-4-(1-methylethenyl)cyclohexene]
mass density [1]: 838.68 ± 1.4 kg/m3
refractive index [2]: 1.47081 ± 0.00068

CCCCCC[n+]1ccn(C)c1.O=S(=O)([N-]S(=O)(=O)C(F)(F)F)C(F)(F)F
mass density [1]: 1372.09 ± 0.28 kg/m3
refractive index [2]: 1.42879 ± 0.00033

C=CC(C)(O)CCC=C(C)C (stereo not given) [3,7-dimethyl-1,6-octadien-3-ol]
mass density [1]: 856.83 ± 1.4 kg/m3
refractive index [2]: 1.45961 ± 0.00068
